In patent US20020081731A1, “MANIPULATION OF PLANT CELL AND TISSUE CULTURES” (priority 1995, published 2002):

Tested on: E. californica suspension subcultures
Test: Seed pretreatment, HPLC analysis of suspension subculture extracts
Assay type: cell-based, Eschscholtzia californica
Conditions: ungerminated seeds pretreated or not pretreated; T1 and T3 conditions; organic solvent extract of cell biomass
From the text: Ungerminated E. californica seeds were either pretreated by exposure to 5-azacytidine, or not pretreated. After uniform germination, callus induction and subculture, suspension initiation, and suspension subculture, the resulting suspension subcultures were subjected to T1 (control) and T3 conditions.

**Q.** `Nc1ncn([C@@H]2O[C@H](CO)[C@@H](O)[C@H]2O)c(=O)n1` [5-azacytidine] was tested. Which “size, number, and location of peaks in the chromatograms” value did it give?
**A.** significantly altered the size, number, and location of peaks
